“Also recorded” adds a separate entry of the source.
Tests used:
[1] = system: infarcted myocardium; experiment: R1 mapping with SI0 map 20 minutes after Gd(DTPA) in dogs 48 h after reperfusion of myocardial infarction; assay type: in vivo, dog
Procedure: In three dogs (n=3), weighing 18-20 kg, myocardial infarctions (MI) were generated by a 180-minute closed-chest coronary artery occlusion. Forty-eight hours following reperfusion, baseline R10 map and SI0-map (see below) were generated using the inversion-recovery (IR) technique with multiple inversion times (TI) (FIG. 6). Delayed-Enhancement (DE) imaging was carried out exactly 15 minutes after Gd(DTPA) (0.2 mmol/kg) administration. Baseline parametric R10 maps, and corresponding SI0 maps, that cover the left ventricle (LV), in a dog 48 h after myocardial infarction, are shown in FIG. 6. R1 was calculated from the SI vs. TI dependence as detailed herein. The calculated baseline relaxation rate of myocardium was R10=1.03±0.05 s^−1, which was later used for calculating the PIM. For the purpose of generating PIMs, 20 minutes after the administration of Gd(DTPA), high resolution images of the entire heart were acquired with two TIs using the same image localizations and sequence parameters (except the TI) as for the baseline R10 and SI0 maps. Details of selecting the optimum TIs are discussed further below. From these images and from the corresponding SI0 maps, voxel-by-voxel R1 maps were generated. Average R1 values in remote myocardium and infarct core were R1=1.73±0.07 s^−1, and R1=3.22±0.09 s^−1, respectively. R1 in LV chamber blood was R1=2.53±0.05 s^−1. ΔR1 (ΔR1=R1−R10) was calculated automatically for each voxel utilizing the baseline R10 map. Average ΔR1r in the remote viable regions was 0.7±0.07 s^−1, while in the center of the infarct (denoted 100% infarcted) ΔR1c was 2.19±0.09 s^−1. The contribution of any contrast-agent-accumulating infarct islet contributes to the total ΔR1 of that voxel. Therefore, ΔR1 is proportional to the amount of non-viable tissue present in any given voxel. Thus, a percent infarct (PI) scale was created, where the core ΔR1c (maximum R1 enhancement observed in the center of the infarct) was considered 100% whereas the ΔR1r of remote areas was 0%. In the canine model used in the present disclosure, the myocardial infarct was generated by prolonged proximal occlusion of the Left Anterior Descending coronary artery, using an intracoronary balloon catheter. Animals were anesthetized and mechanically ventilated during MRI sessions (using isoflurane). A 1.5 Tesla GE Signa Horizon “Cardiac CV” instrument was used for cardiac MRI. Images were generated in standard consecutive short-axis planes (6 slices covering the entire LV) and one additional three-chamber long-axis view to assess the apex (left ventricular outflow tract view).

[2] = system: infarcted myocardium; experiment: R1 mapping (inversion recovery MRI) 24 h and 48 h after PCA in canine reperfused myocardial infarction; assay type: in vivo, dog; details: for Average R1r (R1 in remote regions) / Average ΔR1r (ΔR1 in remote regions): remote myocardium
Description: In FIG. 2, multislice voxel-by-voxel R1 maps (A) and PIMs (B), generated from such images, are shown. The good quality and coregistration of images acquired with varying TI, was confirmed by the R^2 values obtained for the pixel-by-pixel curve-fitting applied to the SI vs. TI dependence. Average R^2 in the myocardium was 0.99±0.005.
Average R10 was 0.98±0.05 s^−1, in agreement with other investigators' findings. […] This proves Gd(ABE-DTTA) to be a PCA suitable for multi-T1 R1 mapping.
In the canine model used in the present disclosure, the myocardial infarct was generated by prolonged proximal occlusion of the Left Anterior Descending coronary artery, using an intracoronary balloon catheter. Animals were anesthetized and mechanically ventilated during MRI sessions (using isoflurane).
A 1.5 Tesla GE Signa Horizon “Cardiac CV” instrument was used for cardiac MRI. Images were generated in standard consecutive short-axis planes (6 slices covering the entire LV) and one additional three-chamber long-axis view to assess the apex (left ventricular outflow tract view).
A 180°-prepared, segmented, fast gradient-echo sequence, was used to determine R1 values of the myocardium using the inversion recovery method. Short axis and long axis images were generated using the following parameters: FOV 300 mm, image matrix 256×256, slice thickness 10 mm, read out flip angle 25°, echo time (TE) 3.32 ms, repetition time (TRp) 7.18 ms, and recycle time (TR) 1200-2000 ms (three R-R intervals, depending on heart rate, but constant throughout an entire given R1 mapping procedure). Inversion times (TI) in the range of 200-1200 ms were used. In theory, 6 different TIs should be sufficient to generate a R1 map. In this disclosure, however, 8-10 TIs were used to ensure accuracy of R1 determination. The R1 values were calculated from the SI vs. TI dependence, applying a three-parameter least-squares curve fitting routine, using the following formula: […]
Since all MRI parameters below reflect the entire volume element in the slice, associated with a given pixel, from this point on the term voxel, rather than pixel, will be used.). The relaxation rate R1 (R1≡1/T1) of each voxel was composed of R10, the myocardial R1 observed in the absence of both infarct and PCA, and ΔR1, the contribution of the PCA present in the voxel:
Using Eq. 2, the R1 map was transformed into a ΔR1 map. The average ΔR1r value of areas remote from the infarct zone (about 600 voxels), was considered representative of 0% infarction.
As a threshold, ΔR1v of all remote voxels where R1v<R1r+2SD, was set to zero.

[3] = 20 minutes after Gd(DTPA) 0.2 mmol/kg
[4] = 20 minutes after Gd(DTPA), ΔR1=R1−R10

Compound	Average R1 in infarct core [1, 3]	Average R1 in remote myocardium [1, 3]	R1 in LV chamber blood [1, 3]	Average ΔR1r in the remote viable regions [1, 4]	ΔR1c in the center of the infarct (denoted 100% infarcted) [1, 4]	Average R1c (R1 in infarct core) ([2]; 24 h after PCA)	Average ΔR1c (ΔR1 in infarct core) ([2]; 24 h after PCA)	Average R1r (R1 in remote regions) ([2]; 24 h after PCA)	Average ΔR1r (ΔR1 in remote regions) ([2]; 24 h after PCA)	Average R1c (R1 in infarct core) ([2]; 48 h after PCA)	Average ΔR1c (ΔR1 in infarct core) ([2]; 48 h after PCA)	Average R1r (R1 in remote regions) ([2]; 48 h after PCA)	Average ΔR1r (ΔR1 in remote regions) ([2]; 48 h after PCA)	hourly change in R1 in all myocardial areas ([2]; between 24 and 48 hours post PCA)	persistence of ΔR1 / agent in the infarct ([2]; infarct region, after a single administration)	hourly change in R1 ([2]; viable tissue, between 24 and 48 hours post PCA, interpolated)	rate of decay in the infarct ([2]; within the acquisition time frame of about 30-40 minutes)
O=C([O-])CN(CCN(CC(=O)[O-])CC(=O)O)CCN(CC(=O)[O-])CC(=O)O.[Gd+3] [Gd(DTPA)]	3.22 ± 0.09 s⁻¹	1.73 ± 0.07 s⁻¹	2.53 ± 0.05 s⁻¹	0.7 ± 0.07 s⁻¹	2.19 ± 0.09 s⁻¹												
Gd(ABE-DTTA)						2.33 ± 0.5 s⁻¹	1.21 ± 0.5 s⁻¹	1.23 ± 0.06 s⁻¹	0.26 ± 0.03 s⁻¹	2.31 ± 0.4 s⁻¹	1.27 ± 0.3 s⁻¹	1.15 ± 0.08 s⁻¹	0.18 ± 0.05 s⁻¹	less than one percent of the measured R1	observable throughout the first week from administration; also recorded: still observable in the infarct region one week after administration	0.26±0.1 percent/hour	less than 1 % of R1

Source: patent US20080108894A1, “Methods and Systems of Analyzing Clinical Parameters and Methods of Producing Visual Images” (priority 2004, published 2008)
